Biological target: wild-type human cardiac sodium channel, hNav1.5 (Homo sapiens, UniProt Q14524)
Assay: Late INa screening assay (automated whole cell patch clamp, PatchXpress)
Type: cell-based
Conditions: compound at 1 μM; HEK293 cells expressing hNav1.5; late INa generated with 10 μM Tefluthrin (or 50 nM ATX II); read-out: LateINa_1 uM (percent block of late INa)
Summary of the method: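 Late sodium current through wild-type human hNav1.5 stably expressed in HEK293 cells (no beta subunits) was recorded by automated whole-cell patch clamp on a PatchXpress 7000A at 24-27° C. Late INa was induced with 10 μM Tefluthrin or 50 nM ATX II. Cells were stepped from −120 mV to −20 mV for 250 ms at 0.1 Hz, and percent block was normalized to current in Na-free extracellular solution.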

Chain of wild-type human cardiac sodium channel, hNav1.5 (Q14524 whole entry): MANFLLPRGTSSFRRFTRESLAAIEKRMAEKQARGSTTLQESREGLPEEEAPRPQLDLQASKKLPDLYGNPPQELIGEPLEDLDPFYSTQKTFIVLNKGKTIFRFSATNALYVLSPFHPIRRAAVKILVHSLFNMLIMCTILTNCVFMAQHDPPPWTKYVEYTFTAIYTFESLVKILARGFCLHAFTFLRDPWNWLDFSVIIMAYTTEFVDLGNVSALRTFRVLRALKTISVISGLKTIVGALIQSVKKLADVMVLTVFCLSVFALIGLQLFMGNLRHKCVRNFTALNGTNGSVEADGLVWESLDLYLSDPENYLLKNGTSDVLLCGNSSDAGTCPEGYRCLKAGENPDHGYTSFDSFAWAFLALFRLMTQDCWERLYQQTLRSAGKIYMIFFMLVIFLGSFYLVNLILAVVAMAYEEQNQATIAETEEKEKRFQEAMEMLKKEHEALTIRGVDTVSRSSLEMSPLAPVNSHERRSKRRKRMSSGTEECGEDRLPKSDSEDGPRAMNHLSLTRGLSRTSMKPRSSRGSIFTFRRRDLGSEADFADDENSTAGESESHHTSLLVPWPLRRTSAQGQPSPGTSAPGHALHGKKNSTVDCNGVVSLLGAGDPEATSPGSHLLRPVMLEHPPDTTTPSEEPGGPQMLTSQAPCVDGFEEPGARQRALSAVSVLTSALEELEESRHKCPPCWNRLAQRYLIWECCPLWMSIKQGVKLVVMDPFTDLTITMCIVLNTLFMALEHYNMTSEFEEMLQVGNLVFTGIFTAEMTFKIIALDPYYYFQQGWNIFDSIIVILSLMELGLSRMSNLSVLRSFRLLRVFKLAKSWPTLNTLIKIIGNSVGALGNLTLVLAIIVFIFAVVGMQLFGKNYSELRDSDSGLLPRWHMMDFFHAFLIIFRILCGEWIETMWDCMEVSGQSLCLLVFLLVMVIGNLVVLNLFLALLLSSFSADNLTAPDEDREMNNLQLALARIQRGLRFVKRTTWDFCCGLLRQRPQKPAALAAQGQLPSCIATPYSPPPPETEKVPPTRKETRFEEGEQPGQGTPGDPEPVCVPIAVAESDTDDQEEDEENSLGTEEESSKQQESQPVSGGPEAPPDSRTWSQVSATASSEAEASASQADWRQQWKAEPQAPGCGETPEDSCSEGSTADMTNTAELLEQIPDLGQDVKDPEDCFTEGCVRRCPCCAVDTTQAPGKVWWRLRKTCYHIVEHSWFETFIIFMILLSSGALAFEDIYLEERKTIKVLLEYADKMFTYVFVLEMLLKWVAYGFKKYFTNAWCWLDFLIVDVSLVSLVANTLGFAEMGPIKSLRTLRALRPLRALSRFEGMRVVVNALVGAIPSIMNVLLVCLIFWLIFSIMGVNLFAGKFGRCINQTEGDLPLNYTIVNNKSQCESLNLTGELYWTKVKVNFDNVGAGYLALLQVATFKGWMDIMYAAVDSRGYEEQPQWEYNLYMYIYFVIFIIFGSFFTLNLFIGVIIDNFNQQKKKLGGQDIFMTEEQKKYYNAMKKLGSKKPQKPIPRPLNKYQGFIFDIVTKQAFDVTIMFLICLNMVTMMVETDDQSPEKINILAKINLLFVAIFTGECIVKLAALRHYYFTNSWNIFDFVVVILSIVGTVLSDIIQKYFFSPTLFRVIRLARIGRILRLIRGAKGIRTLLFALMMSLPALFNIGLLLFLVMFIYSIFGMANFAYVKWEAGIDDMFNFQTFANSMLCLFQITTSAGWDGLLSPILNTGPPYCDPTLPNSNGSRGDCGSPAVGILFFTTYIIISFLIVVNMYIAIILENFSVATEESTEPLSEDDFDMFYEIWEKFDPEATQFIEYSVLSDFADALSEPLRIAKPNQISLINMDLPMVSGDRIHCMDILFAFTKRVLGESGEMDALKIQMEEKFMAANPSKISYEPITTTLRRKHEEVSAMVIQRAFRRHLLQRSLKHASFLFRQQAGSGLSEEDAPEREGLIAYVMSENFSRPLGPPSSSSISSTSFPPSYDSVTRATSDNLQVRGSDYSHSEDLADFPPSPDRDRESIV

| Structure (SMILES) | inhibition at 1 µM |
| --- | --- |
| FC(F)(F)Oc1ccc(-c2ccc3nnc(C(F)(F)OCc4cccc(-c5ncccn5)c4)n3c2)cc1 [BHN-305, 3-(difluoro{[3-(pyrimidin-2-yl)benzyl]oxy}methyl)-6-[4-(trifluoromethoxy)phenyl][1,2,4]triazolo[4,3-a]pyridine] | 59.6% |
| N#CCOCc1c(-c2ccc(OC(F)(F)F)cc2)ccc2nnc(C(F)(F)F)n12 [BHN-279, ({6-[4-(trifluoromethoxy)phenyl]-3-(trifluoromethyl)[1,2,4]triazolo[4,3-a]pyridin-5-yl}methoxy)acetonitrile] | 19.1% |
| CC1(COC(F)(F)c2nnc3ccc(-c4ccc(OC(F)(F)F)cc4)cn23)COC1 [BHN-142, 3-{difluoro[(3-methyloxetan-3-yl)methoxy]methyl}-6-[4-(trifluoromethoxy)phenyl][1,2,4]triazolo[4,3-a]pyridine] | 38.8% |
| FC(F)(F)Oc1ccc(-c2ccc3nnc(C(F)(F)COCc4cc(-c5ccc(Cl)cc5)no4)n3c2)cc1 [BHN-235, 3-(2-{[3-(4-chlorophenyl)-1,2-oxazol-5-yl]methoxy}-1,1-difluoroethyl)-6-[4-(trifluoromethoxy)phenyl][1,2,4]triazolo[4,3-a]pyridine] | 41.5% |
| FC(F)(F)Oc1ccc(-c2ccc3nnc(C(F)(F)OCc4noc(C5CC5)n4)n3c2)cc1 [BHN-206, 3-{[(5-cyclopropyl-1,2,4-oxadiazol-3-yl)methoxy](difluoro)methyl}-6-[4-(trifluoromethoxy)phenyl][1,2,4]triazolo[4,3-a]pyridine] | 44.7% |
| CC(C)c1nnc2ccc(-c3ccc(OCC(F)(F)F)nc3)nn12 [BHN-203, 3-(propan-2-yl)-6-[6-(2,2,2-trifluoroethoxy)pyridin-3-yl][1,2,4]triazolo[4,3-b]pyridazine] | 19.3% |
| FC(F)(F)Oc1ccc(-c2ccc3nnc(COCc4ccc(C(F)(F)F)cc4)n3c2)cc1 [BHN-226, 6-[4-(trifluoromethoxy)phenyl]-3-({[4-(trifluoromethyl)benzyl]oxy}methyl)[1,2,4]triazolo[4,3-a]pyridine] | 59.3% |
| FC(F)(F)Oc1ccc(-c2ccc3nnc(C(F)(F)OCc4cc(C(F)(F)F)nc5ccccc45)n3c2)cc1 [BHN-290, 4-[(difluoro{6-[4-(trifluoromethoxy)phenyl][1,2,4]triazolo[4,3-a]pyridin-3-yl}methoxy)methyl]-2-(trifluoromethyl)quinoline] | 34.6% |
| CC(OC(F)(F)c1nnc2ccc(-c3ccc(OC(F)(F)F)cc3)cn12)c1ccccn1 (stereo not drawn) [BHN-230, 3-{difluoro[1-(pyridin-2-yl)ethoxy]methyl}-6-[4-(trifluoromethoxy)phenyl][1,2,4]triazolo[4,3-a]pyridine] | 42.3% |
| Fc1ccccc1Oc1ccc(-c2ccc3nnc(C(F)(F)F)n3c2)cc1 [BHN-112, 6-[4-(2-fluorophenoxy)phenyl]-3-(trifluoromethyl)[1,2,4]triazolo[4,3-a]pyridine] | 32.9% |
| FC(F)(F)Oc1ccc(-c2ccc3nnc(C(F)(F)OCc4cc(-c5ccccc5Cl)on4)n3c2)cc1 [BHN-326, 3-[{[5-(2-chlorophenyl)-1,2-oxazol-3-yl]methoxy}(difluoro)methyl]-6-[4-(trifluoromethoxy)phenyl][1,2,4]triazolo[4,3-a]pyridine] | 52.4% |
| FC(F)(F)Oc1ccc(-c2ccc3nnc(C(F)(F)OCc4ccc5c(c4)OC(F)(F)O5)n3c2)cc1 [BHN-225, 3-{[(2,2-difluoro-1,3-benzodioxol-5-yl)methoxy](difluoro)methyl}-6-[4-(trifluoromethoxy)phenyl][1,2,4]triazolo[4,3-a]pyridine] | 63% |
| OCc1nc(C(F)(F)F)n2cc(-c3ccc(OC(F)(F)F)cc3)ccc12 [BHN-125, {6-[4-(trifluoromethoxy)phenyl]-3-(trifluoromethyl)imidazo[1,5-a]pyridin-1-yl}methanol] | 33.9% |
| CC(C)c1nc(COC(F)(F)c2nnc3ccc(-c4ccc(OC(F)(F)F)cc4)cn23)no1 [BHN-208, 3-(difluoro{[5-(propan-2-yl)-1,2,4-oxadiazol-3-yl]methoxy}methyl)-6-[4-(trifluoromethoxy)phenyl][1,2,4]triazolo[4,3-a]pyridine] | 70.5% |
| FC(F)(F)COc1ccc(-c2ccc3nnnn3c2)cn1 [BHN-219, 6-[6-(2,2,2-trifluoroethoxy)pyridin-3-yl]tetrazolo[1,5-a]pyridine] | 36.9% |
| CC(O)COC(F)(F)c1nnc2ccc(-c3ccc(OC(F)(F)F)cc3)cn12 (stereo not drawn) [BHN-158, 1-(difluoro{6-[4-(trifluoromethoxy)phenyl][1,2,4]triazolo[4,3-a]pyridin-3-yl}methoxy)propan-2-ol] | 32.9% |
| FC(F)(F)c1nnc2ccc(-c3ccc(Sc4ccccc4)cc3)cn12 [BHN-119, 6-[4-(phenylsulfanyl)phenyl]-3-(trifluoromethyl)[1,2,4]triazolo[4,3-a]pyridine] | 70.5% |
| FC(F)(F)Oc1ccc(-c2ccc3nnc(C(F)(F)OCc4cc(-c5ccccc5)on4)n3c2)cc1 [BHN-298, 3-{difluoro[(5-phenyl-1,2-oxazol-3-yl)methoxy]methyl}-6-[4-(trifluoromethoxy)phenyl][1,2,4]triazolo[4,3-a]pyridine] | 70.3% |
| FC(F)(F)c1ccc(-c2ccc3nnc(C(F)(F)OCc4cc(-c5ccccc5)on4)n3c2)cn1 [BHN-319, 3-{difluoro[(5-phenyl-1,2-oxazol-3-yl)methoxy]methyl}-6-[6-(trifluoromethyl)pyridin-3-yl][1,2,4]triazolo[4,3-a]pyridine] | 30.5% |
| FC(F)(F)Oc1ccc(-c2ccc3nnc(C(F)(F)OCc4cn(-c5ccccc5)nn4)n3c2)cc1 [BHN-215, 3-{difluoro[(1-phenyl-1H-1,2,3-triazol-4-yl)methoxy]methyl}-6-[4-(trifluoromethoxy)phenyl][1,2,4]triazolo[4,3-a]pyridine] | 36.4% |
| N#Cc1cccc(COC(F)(F)c2nnc3ccc(-c4ccc(OC(F)(F)F)cc4)cn23)c1 [BHN-261, 3-[(difluoro{6-[4-(trifluoromethoxy)phenyl][1,2,4]triazolo[4,3-a]pyridin-3-yl}methoxy)methyl]benzonitrile] | 56.8% |
| Cn1nc(COC(F)(F)c2nnc3ccc(-c4ccc(OC(F)(F)F)cc4)cn23)c2ccccc21 [BHN-307, 3-{difluoro[(1-methyl-1H-indazol-3-yl)methoxy]methyl}-6-[4-(trifluoromethoxy)phenyl][1,2,4]triazolo[4,3-a]pyridine] | 68.5% |
| OCC(F)(F)c1nnc2ccc(-c3ccc(Oc4ccccc4)cc3)cn12 [BHN-111, 2,2-difluoro-2-[6-(4-phenoxyphenyl)[1,2,4]triazolo[4,3-a]pyridin-3-yl]ethanol] | 29% |
| FC(F)c1nnc2cnc(-c3ccc(OC(F)(F)F)cc3)cn12 [BHN-23, 3-(difluoromethyl)-6-[4-(trifluoromethoxy)phenyl][1,2,4]triazolo[4,3-a]pyrazine] | 53.5% |
| FC(F)(F)c1ccc(C#Cc2ccc3nnc(C(F)(F)F)n3c2)cc1 [BHN-177, 3-(trifluoromethyl)-6-{[4-(trifluoromethyl)phenyl]ethynyl}[1,2,4]triazolo[4,3-a]pyridine] | 23.6% |

Same assay, conditions: compound at 10 μM; HEK293 cells expressing hNav1.5; late INa generated with 10 μM Tefluthrin (or 50 nM ATX II); read-out: LateINa_10 uM (percent block of late INa)

| Structure (SMILES) | inhibition at 10 µM |
| --- | --- |
| O=C(O)Cc1nnc2ccc(-c3ccc(OC(F)(F)F)cc3)cn12 [BHN-19, {6-[4-(trifluoromethoxy)phenyl][1,2,4]triazolo[4,3-a]pyridin-3-yl}acetic acid] | 35.4% |
| CCOC(=O)c1cccc(-c2ccc3nnc(-c4cccc(C(=O)OCC)c4)n3c2)c1 [BHN-80, diethyl 3,3′-[1,2,4]triazolo[4,3-a]pyridine-3,6-diyldibenzoate] | 59% |
| NC(=O)c1ccc(-c2nnc3ccc(-c4ccc(OC(F)(F)F)cc4)cn23)cc1 [BHN-79, 4-{6-[4-(trifluoromethoxy)phenyl][1,2,4]triazolo[4,3-a]pyridin-3-yl}benzamide] | 19.3% |
| CS(=O)(=O)Nc1ccccc1-c1nnc2ccc(-c3ccc(OC(F)(F)F)cc3)cn12 [BHN-93, N-(2-{6-[4-(trifluoromethoxy)phenyl][1,2,4]triazolo[4,3-a]pyridin-3-yl}phenyl)methanesulfonamide] | 21% |
| c1ccc(Oc2ccc(-c3ccc4nnc(-c5ccc(-c6nn[nH]n6)cc5)n4n3)cc2)cc1 [BHN-50, 6-(4-phenoxyphenyl)-3-[4-(2H-tetrazol-5-yl)phenyl][1,2,4]triazolo[4,3-b]pyridazine] | 31% |
| Nc1cc(-c2ccc(OC(F)(F)F)cc2)cn2c(-c3ccccc3)nnc12 [BHN-52, 3-phenyl-6-[4-(trifluoromethoxy)phenyl][1,2,4]triazolo[4,3-a]pyridin-8-amine] | 44.9% |
| Cc1nnc2ccc(-c3ccc(Oc4ccccc4)cc3)cn12 [BHN-333, 3-methyl-6-(4-phenoxyphenyl)[1,2,4]triazolo[4,3-a]pyridine] | 61.6% |
| Cc1nnc(-c2ccc(-c3ccc4nnc(C(F)(F)F)n4c3)cc2)o1 [BHN-71, 6-[4-(5-methyl-1,3,4-oxadiazol-2-yl)phenyl]-3-(trifluoromethyl)[1,2,4]triazolo[4,3-a]pyridine] | 20.5% |
| CN(C)Cc1cc(-c2ccc3nnc(C(F)(F)F)n3c2)ccc1OC(F)(F)F [BHN-83, N,N-dimethyl-1-{2-(trifluoromethoxy)-5-[3-(trifluoromethyl)[1,2,4]triazolo[4,3-a]pyridin-6-yl]phenyl}methanamine] | 29.8% |
| FC(F)(F)c1nnc2ccc(-c3ccc(Oc4ccccc4)cc3)nn12 [BHN-11, 6-(4-phenoxyphenyl)-3-(trifluoromethyl)[1,2,4]triazolo[4,3-b]pyridazine] | 44.7% |
| FC(F)c1nnc2cnc(-c3ccc(OC(F)(F)F)cc3)cn12 [BHN-23, 3-(difluoromethyl)-6-[4-(trifluoromethoxy)phenyl][1,2,4]triazolo[4,3-a]pyrazine] | 74.7% |

From patent US8952034B2, “Fused heterocyclic compounds as ion channel modulators” (Gilead Sciences, Inc., priority 2009, dated 2015)
